# Measurements from BindingDB's records for doi:10.1080/14756360109162352 (Universit&Agrave, 2001).
# Target: T1, Neutrophil elastase (Homo sapiens, UniProt P08246)
# T1 sequence (P08246 whole entry): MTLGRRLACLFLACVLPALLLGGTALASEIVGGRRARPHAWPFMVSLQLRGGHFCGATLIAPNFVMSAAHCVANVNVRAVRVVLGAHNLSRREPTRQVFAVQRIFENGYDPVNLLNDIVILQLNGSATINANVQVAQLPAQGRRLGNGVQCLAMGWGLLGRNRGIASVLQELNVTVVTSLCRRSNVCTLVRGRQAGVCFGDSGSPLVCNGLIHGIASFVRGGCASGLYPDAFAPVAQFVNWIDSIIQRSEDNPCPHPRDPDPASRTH
# Experiment: Enzyme Assay
# Conditions: 25 °C
# Procedure: The enzyme were assayed spectrophotometrically at 410nm with p-nitroanilide substrates at 25 C.
row,SMILES,Ki [µM]
1,"Cc1nn(C)c2c1NOC(=O)N2 [Pyrazolooxadiazinone, 2b]",207
2,"Cc1nn(-c2ccc(Cl)cc2)c2c1NOC(=O)N2 [Pyrazolooxadiazinone, 2c]",87
3,"CCc1nn(C)c2c1NOC(=O)N2 [Pyrazolooxadiazinone, 2j]",199
4,"CCCCc1nn(C)c2c1NOC(=O)N2 [Pyrazolooxadiazinone, 2l]",113

# Now from value to compound:
row,Ki [µM],SMILES
1,94,"Cc1nn(-c2ccccc2)c2c1NOC(=O)N2 [Pyrazolooxadiazinone, 2a]"
2,> 8400,"Cc1nn(-c2ccccc2[N+](=O)[O-])c2c1NOC(=O)N2 [Pyrazolooxadiazinone, 2g]"
3,> 8400,"Cc1nn(-c2cccc([N+](=O)[O-])c2)c2c1NOC(=O)N2 [Pyrazolooxadiazinone, 2h]"
